Tested on: mouse embryonic stem cells (mESCs)
Assay: CAP-C with G5 dendrimers on mESC samples treated with transcription elongation inhibitors
Format: cell-based
Conditions: for peaks originally called in the control sample that remained: second time point; for contacts in 10 kb resolution contact matrix: mESC; for contact probability between distance-scaled bins 2-7, loop and non-loop domains: versus G5-control
Source text: The inventors then diffuse dendrimers into the cell nucleus and expose these cells to UV irradiation (FIG. 1A). The formaldehyde fixing is then reversed, and DNA-bound proteins are removed with protease to expose all DNA motifs, the dendrimer-DNA complexes are subsequently purified with ethanol precipitation. The purified dendrimer-DNA complexes are then subjected to MboI restriction digestion and end-filling with biotin-bearing DNA, followed by ligation under ultra-diluted solution, biotin capture and high-throughput sequencing (FIG. 1A). Dendrimers with a defined size were used for each CAP-C experiment.
Inhibition of transcription reduces supercoiling and leads to global loss of chromatin contacts. Chromatin topology highly associates with supercoiling, and supercoiling domains have been proposed and identified. […] Motivated by a relationship between transcription-induced supercoiling and domain organization, the inventors next examined whether transcription inhibition affects chromatin architecture. The inventors explored two different transcription elongation inhibitors, flavopiridol and α-amanitin. Reduced levels and rates of supercoiling have been observed upon transcription inhibition. Thus, the inventors performed time-series CAP-C experiments using G5 dendrimers to crosslink mESC samples treated with 2 μM flavopiridol for 1 h and 6 h, as well as samples treated with 4 μg/ml of α-amanitin for 6 h and 12 h, respectively.
The signals of these peaks were, however, weakly attenuated (FIG. 5A). Because these inhibitor-treated and G5-control samples are low-resolution contact maps, the inventors applied Aggregate Peak Analysis (APA) of the peaks called in the deep sequenced CAP-C dataset. […] The inventors plotted the mean contact maps of 103-263 loop-domains (median length: 170 Kb) shared between the control and inhibitor-treated samples by rescaling them into 10 bins (i.e. contact domains in G5-control overlapping loops that are shared between control and inhibitor-treated samples). […] The inventors also quantified these maps into a contact probability vs distance-scaled bins line-plot for all loop domains, non-loop domains and randomly permutated domains. […] Increasing contact frequencies identified at corners of inhibitor-treated loop-domains (bins 8-10) indicate the presence as well as attenuation of peaks from G5-control (FIG. 5E). This is in stark contrast to the absence of such an increase in non-loop domains and randomly permutated domain boundaries.

Row | Structure (SMILES) | peaks originally called in the control sample that remained (6 hr treatment) | loops (APA and meta-analysis) (flavopiridol-treated samples) | contacts in 10 kb resolution contact matrix (2 μM flavopiridol for 1 h and 6 h) | contacts over 1 Mb (relative contact frequency vs distance) (transcription inhibitor-treated vs control) | contact probability between distance-scaled bins 2-7, loop and non-loop domains | APA scores versus control (6 h and 12 h treated samples) | peaks originally called in the control sample that remained (12 hr treatment) | contacts in 10 kb resolution contact matrix (4 μg/ml α-amanitin for 6 h and 12 h)
1 | CN1CC[C@H](c2c(O)cc(O)c3c(=O)cc(-c4ccccc4Cl)oc23)[C@H](O)C1 [flavopiridol] | more than half | attenuated but preserved | profound decrease in contacts | slightly strong depletion | same trends |  |  | 
2 | CC[C@H](C)[C@@H]1NC(=O)CNC(=O)[C@@H]2Cc3c([nH]c4cc(O)ccc34)[S+]([O-])C[C@@H](NC(=O)CNC1=O)C(=O)N[C@@H](CC(N)=O)C(=O)N1C[C@H](O)C[C@H]1C(=O)N[C@@H]([C@@H](C)[C@@H](O)CO)C(=O)N2 (stereo in doubt) [α-amanitin] |  |  |  |  | general decrease | greater | more than half | profound decrease in contacts
